Laboratory results: patent US10588317B2, “Isoxazoline-substituted benzamides and analogues as insecticides” (priority 2015, dated 2020)

Columns and labels:
Type in all cases: in vivo
Diabrotica balteata = Diabrotica balteata (corn root worm), sprayed maize sprouts; settings: 96 h, application rate 200 ppm, L2 larvae, 4 days after infestation, read-out: effect in at least one of the two categories (mortality or growth inhibition)
Procedure: Maize sprouts placed onto an agar layer in 24-well microtiter plates were treated with aqueous test solutions prepared from 10'000 ppm DMSO stock solutions by spraying. After drying, the plates were infested with L2 larvae (6 to 10 per well). The samples were assessed for mortality and growth inhibition in comparison to untreated samples 4 days after infestation.
(§1) The following compounds gave an effect of at least 80% in at least one of the two categories (mortality or growth inhibition) at an application rate of 200 ppm: […]

Euschistus heros = Euschistus heros (neotropical brown stink bug), sprayed soybean leaves; settings: 120 h, application rate 200 ppm, N2 nymphs, 5 days after infestation, read-out: effect in at least one of the two categories (mortality or growth inhibition)
Procedure: Soybean leaves on agar in 24-well microtiter plates were sprayed with aqueous test solutions prepared from 10'000 ppm DMSO stock solutions. After drying the leaves were infested with N2 nymphs. The samples were assessed for mortality and growth inhibition in comparison to untreated samples 5 days after infestation.
as §1

Tetranychus urticae = Tetranychus urticae (two-spotted spider mite): feeding/contact activity; settings: 192 h, application rate 200 ppm, mixed population (mobile stages), 8 days after infestation, read-out: mortality
Procedure: Bean leaf discs on agar in 24-well microtiter plates were sprayed with aqueous test solutions prepared from 10'000 ppm DMSO stock solutions. After drying the leaf discs were infested with a mite population of mixed ages. The samples were assessed for mortality on mixed population (mobile stages) 8 days after infestation.

Thrips tabaci = Thrips tabaci (onion thrips): feeding/contact activity; settings: 144 h, application rate 200 ppm, Thrips population of mixed ages, 6 days after infestation, read-out: mortality
Procedure: Sunflower leaf discs were placed on agar in 24-well microtiter plates and sprayed with aqueous test solutions prepared from 10'000 ppm DMSO stock solutions. After drying the leaf discs were infested with a Thrips population of mixed ages. The samples were assessed for mortality 6 days after infestation.

Plutella xylostella = Plutella xylostella (diamond back moth), artificial diet; settings: 120 h, application rate 200 ppm, L2 larvae, 5 days after infestation, read-out: effect in at least one of the two categories (mortality or growth inhibition)
Procedure: 24-well microtiter plates with artificial diet were treated with aqueous test solutions prepared from 10'000 ppm DMSO stock solutions by pipetting. After drying, the plates were infested with L2 larvae (10 to 15 per well). The samples were assessed for mortality and growth inhibition in comparison to untreated samples 5 days after infestation.
as §1

Spodoptera littoralis = Spodoptera littoralis (Egyptian cotton leaf worm), sprayed cotton leaf discs; settings: foliar, 72 h, application rate 200 ppm, L1 larvae, 3 days after infestation, read-out: control (mortality, anti-feeding effect, growth inhibition)
Procedure: Cotton leaf discs were placed onto agar in 24-well microtiter plates and sprayed with aqueous test solutions prepared from 10'000 ppm DMSO stock solutions. After drying the leaf discs were infested with five L1 larvae. The samples were assessed for mortality, anti-feeding effect, and growth inhibition in comparison to untreated samples 3 days after infestation. Control of Spodoptera littoralis by a test sample is given when at least one of the categories mortality, anti-feedant effect, and growth inhibition is higher than the untreated sample.

Cc1cc(C2=NO[C@](c3cc(Cl)cc(Cl)c3)(C(F)(F)F)C2)ccc1C(=O)N[C@H]1CON(S(=O)(=O)NC2(C#N)CC2)C1 [Compound A167]
≥ 80%: percent effect (mortality or growth inhibition) at 200 ppm (Diabrotica balteata) | percent effect (mortality or growth inhibition) at 200 ppm (Euschistus heros) | mortality at 200 ppm (Tetranychus urticae) | mortality at 200 ppm (Thrips tabaci) | percent effect (mortality or growth inhibition) at 200 ppm (Plutella xylostella) | mortality at 200 ppm (Spodoptera littoralis)

Cc1cc(C2=NO[C@](c3cc(Cl)c(F)c(Cl)c3)(C(F)(F)F)C2)ccc1C(=O)N[C@H]1CON(S(=O)(=O)CCC(F)(F)F)C1 [Compound A199, 4-[(5R)-5-(3,5-dichloro-4-fluorophenyl)-5-(trifluoromethyl)-4H-1,2-oxazol-3-yl]-2-methyl-N-[(4R)-2-(3,3,3-trifluoropropylsulfonyl)-1,2-oxazolidin-4-yl]benzamide]
≥ 80%: percent effect (mortality or growth inhibition) at 200 ppm (Diabrotica balteata) | percent effect (mortality or growth inhibition) at 200 ppm (Euschistus heros) | mortality at 200 ppm (Tetranychus urticae) | mortality at 200 ppm (Thrips tabaci) | percent effect (mortality or growth inhibition) at 200 ppm (Plutella xylostella) | mortality at 200 ppm (Spodoptera littoralis)

Cc1cc(C2=NO[C@](c3cc(Cl)c(F)c(Cl)c3)(C(F)(F)F)C2)ccc1C(=O)N[C@H]1CON(S(=O)(=O)CC(F)F)C1 [Compound A225, 4-[(5R)-5-(3,5-dichloro-4-fluorophenyl)-5-(trifluoromethyl)-4H-1,2-oxazol-3-yl]-N-[(4R)-2-(2,2-difluoroethylsulfonyl)-1,2-oxazolidin-4-yl]-2-methylbenzamide]
≥ 80%: percent effect (mortality or growth inhibition) at 200 ppm (Diabrotica balteata) | percent effect (mortality or growth inhibition) at 200 ppm (Euschistus heros) | mortality at 200 ppm (Tetranychus urticae) | mortality at 200 ppm (Thrips tabaci) | percent effect (mortality or growth inhibition) at 200 ppm (Plutella xylostella) | mortality at 200 ppm (Spodoptera littoralis)

Cc1cc(C2=NO[C@@](c3cc(Cl)cc(Cl)c3)(C(F)(F)F)C2)ccc1C(=O)N[C@@H]1CON(S(=O)(=O)CC(=O)N(C)C)C1 [Compound A202, 4-[(5S)-5-(3,5-dichlorophenyl)-5-(trifluoromethyl)-4H-1,2-oxazol-3-yl]-N-[(4S)-2-[2-(dimethylamino)-2-oxoethyl]sulfonyl-1,2-oxazolidin-4-yl]-2-methylbenzamide]
≥ 80%: percent effect (mortality or growth inhibition) at 200 ppm (Diabrotica balteata) | percent effect (mortality or growth inhibition) at 200 ppm (Euschistus heros) | mortality at 200 ppm (Tetranychus urticae) | mortality at 200 ppm (Thrips tabaci) | percent effect (mortality or growth inhibition) at 200 ppm (Plutella xylostella) | mortality at 200 ppm (Spodoptera littoralis)

Cc1cc(C2=NO[C@@](c3cc(Cl)c(F)c(Cl)c3)(C(F)(F)F)C2)ccc1C(=O)N[C@@H]1CON(S(=O)(=O)CC(=O)NO)C1 [Compound A203, 4-[(5S)-5-(3,5-dichloro-4-fluorophenyl)-5-(trifluoromethyl)-4H-1,2-oxazol-3-yl]-N-[(4S)-2-[2-(hydroxyamino)-2-oxoethyl]sulfonyl-1,2-oxazolidin-4-yl]-2-methylbenzamide]
≥ 80%: percent effect (mortality or growth inhibition) at 200 ppm (Diabrotica balteata) | percent effect (mortality or growth inhibition) at 200 ppm (Euschistus heros) | mortality at 200 ppm (Tetranychus urticae) | mortality at 200 ppm (Thrips tabaci) | percent effect (mortality or growth inhibition) at 200 ppm (Plutella xylostella) | mortality at 200 ppm (Spodoptera littoralis)

CN(C)S(=O)(=O)N1C[C@@H](NC(=O)c2ccc(C3=NO[C@@](c4cc(Cl)cc(Cl)c4)(C(F)(F)F)C3)cc2Cl)CO1 [Compound A110, 2-chloro-4-[(5S)-5-(3,5-dichlorophenyl)-5-(trifluoromethyl)-4H-isoxazol-3-yl]-N-[(4R)-2-(dimethylsulfamoyl)isoxazolidin-4-yl]benzamide]
≥ 80%: percent effect (mortality or growth inhibition) at 200 ppm (Diabrotica balteata) | percent effect (mortality or growth inhibition) at 200 ppm (Euschistus heros) | mortality at 200 ppm (Tetranychus urticae) | mortality at 200 ppm (Thrips tabaci) | percent effect (mortality or growth inhibition) at 200 ppm (Plutella xylostella) | mortality at 200 ppm (Spodoptera littoralis)
